Data: patent US6794416B2, “Methods, compositions and modes of delivery for the treatment of emphysema using 13-cis-retinoic acid” (Syntex (U.S.A.) LLC, priority 2000, dated 2004)
Where two headings read alike, the source gives them in different places. Marks after values point to notes of the source that are not given here.

Legend:
[1] = test system: rat model of elastase-induced emphysema; assay: alveolar repair in the rat model of elastase-induced emphysema; format: in vivo, male Sprague Dawley rats; conditions: for % Alveolar Repair: starting 21 days post elastase injury, relative to elastase + vehicle
Procedure: All-trans retinoic acid (ATRA) and 13-cis-retinoic acid were evaluated for their effects on alveolar repair in the rat model of elastase-induced emphysema (Massaro et al., Nature, 1997, Vol. 3, No. 6:675; Massaro et al., U.S. Pat. No. 5,998,486). Animals were divided into treatment groups of approximately eight. Lung inflammation and alveolar damage was induced in male Sprague Dawley rats by a single instillation of about 2 U/gram body mass of pancreatic elastase (porcine derived, Calbiochem).
(§1) Animals treated with ATRA and 13-cis-retinoic acid prepared in Capmul at the dosage ranges enumerated in Table 6 were dosed orally once per day starting 21 days post injury. Control groups were challenged with elastase and 21 days later were treated with vehicle (Capmul solution) for 14 days. Animals were sacrificed 24 hours after the last dose by exsanguination under deep anesthesia. Blood was collected at time of exsanguination for analysis.
The lungs were inflated with 10% neutral buffered formalin by intratracheal instillation at a constant rate (1 ml/gram body mass/min). The lung was excised and immersed in fixative for 24 hours prior to processing. Alveolar measurements were made in four regions of the lung/rat. The mean value/treatment group was determined by summing the average area/rat for all eight rats relative to the elastase+ vehicle treated group. […] Standard methods were used to prepare 5 μm paraffin sections. Sections were stained with Hematoxylin and Eosin. Computerized Morphometric analysis was performed to determine the average alveolar size and alveolar number.

[2] = design: species or system male Sprague Dawley rats; conditions: rat, in vivo, po
Procedure: as §1
Quantitation of triglycerides contained in rat plasma was performed using established procedures in a contact clinical laboratory facility. Briefly, plasma triglycerides were converted to dihdroxyacetone and hydrogen peroxide by sequential treatment of plasma with lipase and glycerokinase according directions described by the manufacturer of triglycerides/GPO kit (Boehringer Mannheim #1488872). Hydrogen peroxide was quantitated colorimetrically in a Hitachi 911 Chemistry Analyzer. In rats normal triglyceride levels are between about 75 mg/dl and about 175 mg/dl.
Triglyceride values are a convenient measure of toxicity. […] Furthermore, at every dosage level tested, the triglyceride levels observed with 13-cis-retinoic acid were lower than that observed for ATRA.

[3] = oral dose 0.1 mg/kg once per day
[4] = oral dose 1.0 mg/kg once per day
[5] = oral dose 10.0 mg/kg once per day

SMILES | statistical significance of alveolar repair relative to elastase treated control ([1]; dosage of 0.001 mg/kg) | statistical significance of alveolar repair relative to elastase treated control ([1]; dosage range from 10.0 mg/kg to as low as 0.01 mg/kg) | % Alveolar Repair ([1]; oral dose 0.001 mg/kg once per day) | % Alveolar Repair ([1]; oral dose 0.01 mg/kg once per day) [%] | % Alveolar Repair [1, 3] | % Alveolar Repair [1, 4] [%] | % Alveolar Repair [1, 5] [%] | Triglyceride ([2]; 0.001 mg/kg) [mg/dL] | Triglyceride ([2]; 0.01 mg/kg) [mg/dL] | Triglyceride ([2]; 0.1 mg/kg) [mg/dL] | Triglyceride ([2]; 1 mg/kg) [mg/dL] | Triglyceride ([2]; 10 mg/kg) [mg/dL] | statistical significance of alveolar repair relative to elastase treated control ([1]; dosages below 0.3 mg/kg) | % Alveolar Repair ([1]; oral dose 0.3 mg/kg once per day) | % Alveolar Repair ([1]; oral dose 3.0 mg/kg once per day) [%] | Triglyceride ([2]; 0.3 mg/kg) [mg/dL] | Triglyceride ([2]; 3 mg/kg) [mg/dL]
CC1=C(/C=C/C(C)=C/C=C/C(C)=C\C(=O)O)C(C)(C)CCC1 [13-cis-retinoic acid, (13Z)-retinoic acid] | statistically insignificant | statistically significant | 12* % | 38 | 30% | 45 | 56 | 125 | 73 | 82 | 128 | 147 |  |  |  |  | 
CC1=C(/C=C/C(C)=C/C=C/C(C)=C/C(=O)O)C(C)(C)CCC1 [ATRA, All-trans retinoic acid] |  |  |  |  | 8.8* % | 45 | 53 |  |  | 152 | 175 | 378 | not statistically significant | 30* % | 47 | 149 | 307
